Results published in patent publication US5574008A, “Biologically active fragments of glucagon-like insulinotropic peptide” (Eli Lilly and Company, priority 1994, dated 1996).

Test system: fasted normal Sprague-Dawley rats
Test: In vivo hyperglycemic clamp assay (glucose up-take assay)
Set-up: species or system rat
Conditions: 0.3 nmol/kg iv bolus at 60 min
Excerpt: In vivo Hyperglycemic Clamp Assay (Glucose Up-take Assay) Male Sprague-Dawley rats (Charles Rivers) weighing about 350 grams were allowed to acclimate to their surroundings for a week after which they were cannulated under isoflurane inhalation anesthetic. Two catheters were implanted into the jugular vein for infusions of glucose and GLP-1 fragment. Another catheter was implanted into the carotid artery for sampling blood. The catheters were exteriorized through the skin at the vertex of the head, filled with a glycerol/heparin solution (30 ml glycerol/10 ml heparin from a 1000 u/ml stock solution), and closed off with a one centimeter stainless steel plug. The rats were housed individually in wire mesh cages and were fed ad libitum on a standard rat chow diet. Each animal was given at least one week to recover from surgery before testing any GLP-1 fragments for biological activity. The rats were fasted overnight; on the morning of the experiment, sampling tubes were connected to the indwelling catheters, and the tubes were enclosed in a light weight stainless steel spring for protection. The rats were acclimated to their cages for 15 minutes. All experiments were carried out in conscious, free moving rats. A basal blood sample was taken for measurement of insulin and glucose levels at time zero on the timer. The rats were then given a bolus of 20% dextrose to raise plasma glucose to either 150 mg/dl (8.3 mM) or 200 mg/dl (11.2 mM). Plasma glucose levels were maintained at the chosen level by measuring plasma glucose levels approximately every 5 minutes and adjusting the calibrated variable infusion pump as needed to maintain the established blood glucose levels. Blood samples were collected at 45 and 60 minutes for the control period measurements. At 60 minutes into the clamp, 0.3 nmol/kg of the experimental GLP-1 fragment was injected via the jugular vein catheter and flushed with saline. […] The blood samples were centrifuged in a micro centrifuge to separate the plasma component. Plasma glucose was measured on a Beckman Glucose analyzer II using the glucose oxidase method. Plasma insulin was determined by standard radio immunoassay as per the manufacturer's directions (Diagnostic Products Corp.). The activity of the GLP-1 fragment was determined by the percentage change in glucose infusion rate and change in insulin secreted. These two parameters were compared to control rats that received only diluent. Note: This assay is based on reports that GLP-1 insulinotropic action is glucose dependent. The assay protocol eliminates variability due to falling glucose levels in other protocols using the "bolus" method. The hyperglycemic clamp involved administration of variable amounts of glucose (20% dextrose) to maintain glucose at a constant level of 8.3 or 11.2 mM in fasted normal Sprague-Dawley rats. The hyperglycemic clamp is maintained for 1 hour after which the GLP-1 fragment is injected as a bolus through the jugular vein. […] The glucose infusion rate (GIR) in the last 15 minutes of the control period and after the injection of the peptide is calculated. The activity of the peptide is determined by the increase in glucose infusion rate and change in insulin secreted after the injection of the peptide.

[1] = 200 mg/dl plasma glucose clamp, time 60 min
[2] = 200 mg/dl plasma glucose clamp, time 62 min
[3] = 200 mg/dl plasma glucose clamp, time 64 min
[4] = 200 mg/dl plasma glucose clamp, time 66 min
[5] = 200 mg/dl plasma glucose clamp, time 68 min
[6] = 200 mg/dl plasma glucose clamp, time 70 min
[7] = 200 mg/dl plasma glucose clamp, time 75 min
[8] = 200 mg/dl plasma glucose clamp, time 80 min
[9] = 200 mg/dl plasma glucose clamp, time 85 min
[10] = 200 mg/dl plasma glucose clamp, time 90 min
[11] = 200 mg/dl plasma glucose clamp, time 100 min
[12] = 200 mg/dl plasma glucose clamp, time 110 min
[13] = 200 mg/dl plasma glucose clamp, time 120 min
[14] = 150 mg/dl plasma glucose clamp, time 60 min
[15] = 150 mg/dl plasma glucose clamp, time 62 min
[16] = 150 mg/dl plasma glucose clamp, time 64 min
[17] = 150 mg/dl plasma glucose clamp, time 66 min
[18] = 150 mg/dl plasma glucose clamp, time 68 min
[19] = 150 mg/dl plasma glucose clamp, time 70 min
[20] = 150 mg/dl plasma glucose clamp, time 75 min
[21] = 150 mg/dl plasma glucose clamp, time 80 min
[22] = 150 mg/dl plasma glucose clamp, time 85 min
[23] = 150 mg/dl plasma glucose clamp, time 90 min
[24] = 150 mg/dl plasma glucose clamp, time 100 min
[25] = 150 mg/dl plasma glucose clamp, time 110 min
[26] = 150 mg/dl plasma glucose clamp, time 120 min
[27] = 150 mg/dl plasma glucose clamp, time 130 min
[28] = 150 mg/dl plasma glucose clamp, time 140 min
[29] = 150 mg/dl plasma glucose clamp, time 150 min
[30] = 200 mg/dl plasma glucose clamp, time 130 min
[31] = 200 mg/dl plasma glucose clamp, time 140 min
[32] = 200 mg/dl plasma glucose clamp, time 150 min

“GLP-1(R26)(9-36)NH2 [GLP-1(R26) (9-36)NH2]” was tested, and the “% Change in GIR” value [1] was 19.020%, the “Plasma Insulin Change” value [1] was 1.692 ng/mL and the “% Change in GIR” value [2] was 2.128%. The “Plasma Insulin Change” value [2] was 0.693 ng/mL, the “% Change in GIR” value [3] was 3.752% and the “Plasma Insulin Change” value [3] was 0.025 ng/mL. For the same substance, the “% Change in GIR” value [4] was 11.602%, the “Plasma Insulin Change” value [4] was 0.204 ng/mL and the “% Change in GIR” value [5] was 29.976%. The “Plasma Insulin Change” value [5] was 0.063 ng/mL, the “% Change in GIR” value [6] was 37.819% and the “Plasma Insulin Change” value [6] was 0.185 ng/mL. For the same substance, the “% Change in GIR” value [7] was 50.568%, the “Plasma Insulin Change” value [7] was -0.125 ng/mL and the “% Change in GIR” value [8] was 42.526%. The “Plasma Insulin Change” value [8] was 0.134 ng/mL, the “% Change in GIR” value [9] was 16.548% and the “Plasma Insulin Change” value [9] was -0.550 ng/mL. For the same substance, the “% Change in GIR” value [10] was -6.165%, the “Plasma Insulin Change” value [10] was -0.336 ng/mL and the “% Change in GIR” value [11] was -18.164%. The “Plasma Insulin Change” value [11] was 0.027 ng/mL, the “% Change in GIR” value [12] was -35.351% and the “Plasma Insulin Change” value [12] was -0.100 ng/mL. The “% Change in GIR” value [13] was -48.404% and the “Plasma Insulin Change” value [13] was 0.399 ng/mL.
GLP-1(7-37)OH was tested, and the “% Change in GIR” value [14] was 11.15%, the “Plasma Insulin Change” value [14] was 1.140 ng/mL and the “% Change in GIR” value [15] was -0.20%. The “Plasma Insulin Change” value [15] was 7.233 ng/mL, the “% Change in GIR” value [16] was 11.15% and the “Plasma Insulin Change” value [16] was 1.464 ng/mL. The “% Change in GIR” value [17] was 1.66%, the “Plasma Insulin Change” value [17] was 0.324 ng/mL and the “% Change in GIR” value [18] was 5.64%. For the same substance, the “Plasma Insulin Change” value [18] was -0.016 ng/mL, the “% Change in GIR” value [19] was 19.95% and the “Plasma Insulin Change” value [19] was -0.375 ng/mL. For the same substance, the “% Change in GIR” value [20] was 71.90%, the “Plasma Insulin Change” value [20] was -0.465 ng/mL and the “% Change in GIR” value [21] was 92.63%. The “Plasma Insulin Change” value [21] was -0.357 ng/mL, the “% Change in GIR” value [22] was 61.76% and the “Plasma Insulin Change” value [22] was -0.020 ng/mL. For the same substance, the “% Change in GIR” value [23] was 14.74%, the “Plasma Insulin Change” value [23] was -0.181 ng/mL and the “% Change in GIR” value [24] was -26.22%. The “Plasma Insulin Change” value [24] was -0.358 ng/mL, the “% Change in GIR” value [25] was -38.57% and the “Plasma Insulin Change” value [25] was -0.174 ng/mL. For the same substance, the “% Change in GIR” value [26] was -48.67%, the “Plasma Insulin Change” value [26] was -0.326 ng/mL and the “% Change in GIR” value [27] was -54.82%. For the same substance, the “Plasma Insulin Change” value [27] was -0.578 ng/mL, the “% Change in GIR” value [28] was -58.43% and the “Plasma Insulin Change” value [28] was -0.367 ng/mL. For the same substance, the “% Change in GIR” value [29] was -63.58%, the “Plasma Insulin Change” value [29] was -0.465 ng/mL and the “% Change in GIR” value [1] was 20.449%. For the same substance, the “Plasma Insulin Change” value [1] was 1.887 ng/mL, the “% Change in GIR” value [2] was 25.050% and the “Plasma Insulin Change” value [2] was 11.101 ng/mL. For the same substance, the “% Change in GIR” value [3] was 23.583%, the “Plasma Insulin Change” value [3] was 4.219 ng/mL and the “% Change in GIR” value [4] was 15.374%. For the same substance, the “Plasma Insulin Change” value [4] was 3.246 ng/mL, the “% Change in GIR” value [5] was 19.465% and the “Plasma Insulin Change” value [5] was 1.359 ng/mL. For the same substance, the “% Change in GIR” value [6] was 50.305%, the “Plasma Insulin Change” value [6] was -0.208 ng/mL and the “% Change in GIR” value [7] was 71.461%. For the same substance, the “Plasma Insulin Change” value [7] was -0.692 ng/mL, the “% Change in GIR” value [8] was 88.390% and the “Plasma Insulin Change” value [8] was -0.456 ng/mL. The “% Change in GIR” value [9] was 86.482%, the “Plasma Insulin Change” value [9] was -0.177 ng/mL and the “% Change in GIR” value [10] was 55.677%. For the same substance, the “Plasma Insulin Change” value [10] was -0.250 ng/mL, the “% Change in GIR” value [11] was 11.304% and the “Plasma Insulin Change” value [11] was -0.301 ng/mL. For the same substance, the “% Change in GIR” value [12] was -12.411%, the “Plasma Insulin Change” value [12] was -0.222 ng/mL and the “% Change in GIR” value [13] was -7.123%. For the same substance, the “Plasma Insulin Change” value [13] was -0.405 ng/mL, the “% Change in GIR” value [30] was -17.745% and the “Plasma Insulin Change” value [30] was -0.590 ng/mL. The “% Change in GIR” value [31] was -15.311%, the “Plasma Insulin Change” value [31] was -0.289 ng/mL and the “% Change in GIR” value [32] was -21.279%. For the same substance, the “Plasma Insulin Change” value [32] was -0.280 ng/mL.
